Assay results as given in ChEMBL document CHEMBL3751779, “Amides of non-steroidal anti-inflammatory drugs with thiomorpholine can yield hypolipidemic agents with improved anti-inflammatory activity” (Bioorg Med Chem Lett, 2016).

What was measured:
Type in all cases: functional
[1] = test system: Rattus norvegicus; assay: Anti-inflammatory activity in rat assessed as reduction of carrageenan-induced paw edema at 150 umol/kg, ip after 3.5 hrs relative to control
[2] = test system: Rattus norvegicus; assay: Antihyperlipidemic activity in rat assessed as reduction of tyloxapol-induced plasma total cholesterol level at 150 umol/kg, ip after 24 hrs relative to control
[3] = test system: Rattus norvegicus; assay: Antihyperlipidemic activity in rat assessed as reduction of tyloxapol-induced plasma triglyceride level at 150 umol/kg, ip after 24 hrs relative to control
[4] = test system: Rattus norvegicus; assay: Antihyperlipidemic activity in rat assessed as reduction of tyloxapol-induced plasma low density lipoprotein cholesterol level at 150 umol/kg, ip after 24 hrs relative to control

SMILES: O=C(CCCCC1CCSS1)N1CCSCC1 (stereo unspecified)
- inhibition in vivo at 150 µmol/kg [1]: 59%

SMILES: Cc1c(Cl)cccc1Nc1ccccc1C(=O)O [TOLFENAMIC ACID]
- inhibition in vivo at 150 µmol/kg [1]: 24%

SMILES: COc1ccc2c(c1)c(CC(=O)N1CCSCC1)c(C)n2C(=O)c1ccc(Cl)cc1
- inhibition in vivo at 150 µmol/kg [2]: 73%
- inhibition in vivo at 150 µmol/kg [1]: 38%
- inhibition in vivo at 150 µmol/kg [3]: 79.5%
- inhibition in vivo at 150 µmol/kg [4]: 83%

SMILES: COc1ccc2cc(C(C)C(=O)N3CCSCC3)ccc2c1 (stereo unspecified)
- inhibition in vivo at 150 µmol/kg [2]: 57.8%
- inhibition in vivo at 150 µmol/kg [1]: 62%
- inhibition in vivo at 150 µmol/kg [3]: 61.3%
- inhibition in vivo at 150 µmol/kg [4]: 81.4%

SMILES: Cc1c(Cl)cccc1Nc1ccccc1C(=O)N1CCSCC1
- inhibition in vivo at 150 µmol/kg [2]: 65.9%
- inhibition in vivo at 150 µmol/kg [1]: 45%
- inhibition in vivo at 150 µmol/kg [3]: 80%
- inhibition in vivo at 150 µmol/kg [4]: 70.5%

SMILES: O=C(Cc1ccccc1Nc1c(Cl)cccc1Cl)N1CCSCC1
- inhibition in vivo at 150 µmol/kg [2]: 44.1%
- inhibition in vivo at 150 µmol/kg [1]: 40%
- inhibition in vivo at 150 µmol/kg [3]: 46.4%
- inhibition in vivo at 150 µmol/kg [4]: 70.8%

SMILES: COc1ccc2cc([C@H](C)C(=O)O)ccc2c1 [NAPROXEN]
- inhibition in vivo at 150 µmol/kg [1]: 11%

SMILES: COc1ccc2c(c1)c(CC(=O)O)c(C)n2C(=O)c1ccc(Cl)cc1 [INDOMETHACIN]
- inhibition in vivo at 150 µmol/kg [1]: 42%

SMILES: CC(C)Cc1ccc(C(C)C(=O)O)cc1 (stereo unspecified) [IBUPROFEN]
- inhibition in vivo at 150 µmol/kg [1]: 36%

SMILES: O=C(O)Cc1ccccc1Nc1c(Cl)cccc1Cl [DICLOFENAC]
- inhibition in vivo at 150 µmol/kg [1]: 37%

SMILES: CC(C(=O)N1CCSCC1)c1cccc(C(=O)c2ccccc2)c1 (stereo unspecified)
- inhibition in vivo at 150 µmol/kg [2]: 49%
- inhibition in vivo at 150 µmol/kg [1]: 60%
- inhibition in vivo at 150 µmol/kg [3]: 43%
- inhibition in vivo at 150 µmol/kg [4]: 64.9%

SMILES: O=C(Cc1c[nH]c2ccccc12)N1CCSCC1
- inhibition in vivo at 150 µmol/kg [1]: 29%

SMILES: Cc1cccc(Nc2ccccc2C(=O)N2CCSCC2)c1C
- inhibition in vivo at 150 µmol/kg [2]: 80.5%
- inhibition in vivo at 150 µmol/kg [1]: 46%
- inhibition in vivo at 150 µmol/kg [3]: 81.5%
- inhibition in vivo at 150 µmol/kg [4]: 71.3%

SMILES: Cc1cccc(Nc2ccccc2C(=O)O)c1C [MEFENAMIC ACID]
- inhibition in vivo at 150 µmol/kg [1]: 44%

SMILES: CC(C)Cc1ccc(C(C)C(=O)N2CCSCC2)cc1 (stereo unspecified)
- inhibition in vivo at 150 µmol/kg [2]: 60.3%
- inhibition in vivo at 150 µmol/kg [1]: 41%
- inhibition in vivo at 150 µmol/kg [3]: 64.2%
- inhibition in vivo at 150 µmol/kg [4]: 57.6%

SMILES: O=C(c1ccccc1Nc1cccc(C(F)(F)F)c1)N1CCSCC1
- inhibition in vivo at 150 µmol/kg [2]: 52.8%
- inhibition in vivo at 150 µmol/kg [1]: 44%
- inhibition in vivo at 150 µmol/kg [3]: 54.1%
- inhibition in vivo at 150 µmol/kg [4]: 64.2%

SMILES: O=C(O)c1ccccc1Nc1cccc(C(F)(F)F)c1 [FLUFENAMIC ACID]
- inhibition in vivo at 150 µmol/kg [1]: 19%
